In patent US11180484B2, “Pyrazole derivatives as plasma kallikrein inhibitors” (KALVISTA PHARMACEUTICALS LIMITED, priority 2016, dated 2021):
Converted amounts (≈) assume the structure as drawn. Like-named read-outs stand apart in the source and are kept apart here.

Columns and labels:
[1] = Predicted plasma clearance (Clp), well-stirred model, human; format: in vitro ADME; conditions: percentage of hepatic blood flow
Description: (§1) The predicted plasma clearance (Clp) is calculated using the well-stirred model (Rowland M, Benet L Z, and Graham G G. Clearance concepts in pharmacokinetics. J Pharmacokinet Biopharm. (1973) 1:123-136.), one of several models that can be used to extrapolate the in vitro data. The model assumes instantaneous and complete mixing of drug within the liver and is a function of intrinsic clearance, hepatic blood flow and free fraction of drug in the blood. The predicted plasma clearance in mL/min/kg is presented as a percentage of hepatic blood flow (LBF).

trypsin = assay: Determination of enzyme selectivity: trypsin; format: biochemical, human; conditions: substrate at Km concentration
plasmin = plasmin (Homo sapiens (Human), UniProt P00747); assay: Determination of enzyme selectivity: plasmin; format: biochemical; conditions: substrate at Km concentration
Chain of plasmin (P00747 581-810): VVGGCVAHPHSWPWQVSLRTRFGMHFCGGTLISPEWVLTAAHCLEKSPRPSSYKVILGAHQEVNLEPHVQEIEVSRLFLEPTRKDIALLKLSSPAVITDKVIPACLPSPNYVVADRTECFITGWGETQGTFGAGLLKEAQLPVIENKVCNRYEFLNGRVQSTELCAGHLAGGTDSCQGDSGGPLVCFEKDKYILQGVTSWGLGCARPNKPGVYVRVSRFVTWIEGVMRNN
Chain of plasmin (P00747 97-580): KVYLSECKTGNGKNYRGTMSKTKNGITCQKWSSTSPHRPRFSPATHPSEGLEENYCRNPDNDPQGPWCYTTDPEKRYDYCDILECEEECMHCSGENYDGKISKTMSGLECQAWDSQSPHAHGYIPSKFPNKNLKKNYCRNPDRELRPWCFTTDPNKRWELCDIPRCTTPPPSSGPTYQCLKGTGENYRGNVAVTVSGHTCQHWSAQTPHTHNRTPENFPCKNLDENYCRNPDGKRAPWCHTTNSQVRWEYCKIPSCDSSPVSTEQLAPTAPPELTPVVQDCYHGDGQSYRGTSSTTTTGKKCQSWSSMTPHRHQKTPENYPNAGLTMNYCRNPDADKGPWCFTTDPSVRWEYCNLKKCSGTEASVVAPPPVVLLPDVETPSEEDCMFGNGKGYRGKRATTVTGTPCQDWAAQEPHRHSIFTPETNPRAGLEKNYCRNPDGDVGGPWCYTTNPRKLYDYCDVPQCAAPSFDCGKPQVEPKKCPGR
Description: (§4) Human serine protease enzymes plasmin, thrombin and trypsin were assayed for enzymatic activity using an appropriate fluorogenic substrate. Protease activity was measured by monitoring the accumulation of liberated fluorescence from the substrate over 5 minutes. The linear rate of fluorescence increase per minute was expressed as percentage (%) activity. The Km for the cleavage of each substrate was determined by standard transformation of the Michaelis-Menten equation.

Human KLK1 = Human KLK1 (Homo sapiens (Human), UniProt P06870); assay: Determination of the IC50 for KLK1; format: biochemical; conditions: 25° C., substrate H-DVal-Leu-Arg-AFC
Chain of Human KLK1 (P06870 25-262): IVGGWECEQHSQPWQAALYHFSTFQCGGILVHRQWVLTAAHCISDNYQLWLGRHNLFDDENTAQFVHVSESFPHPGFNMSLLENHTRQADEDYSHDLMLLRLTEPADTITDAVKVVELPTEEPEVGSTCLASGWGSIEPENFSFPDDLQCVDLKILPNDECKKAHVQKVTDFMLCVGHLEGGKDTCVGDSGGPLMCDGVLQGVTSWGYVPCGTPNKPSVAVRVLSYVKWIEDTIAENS
Description: (§2) Human KLK1 (Callbiochem) was incubated at 25° C. with the fluorogenic substrate H-DVal-Leu-Arg-AFC and various concentrations of the test compound. Residual enzyme activity (initial rate of reaction) was determined by measuring the change in […] at 410 nm and the IC50 value for the test compound was determined.

Human Factor XIIa = Human Factor XIIa (Homo sapiens (Human), UniProt P00748); assay: Factor XIIa inhibitory activity in vitro; format: biochemical; conditions: 25° C., substrate H-DPro-Phe-Arg-AFC; read-out: IC50 (human FXIIa)
Chain of Human Factor XIIa (P00748 373-615): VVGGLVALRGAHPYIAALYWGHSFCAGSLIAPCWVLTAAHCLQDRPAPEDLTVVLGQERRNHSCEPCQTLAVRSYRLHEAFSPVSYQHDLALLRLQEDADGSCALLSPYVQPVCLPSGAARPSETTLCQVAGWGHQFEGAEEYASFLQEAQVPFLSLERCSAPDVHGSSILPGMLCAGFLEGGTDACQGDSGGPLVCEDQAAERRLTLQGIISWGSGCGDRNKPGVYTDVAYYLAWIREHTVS
Description: as §2, with “Factor XIIa (Enzyme Research Laboratories)” for “KLK1 (Callbiochem)”, “H-DPro-Phe-Arg-AFC” for “H-DVal-Leu-Arg-AFC”

[2] = Plasma protein binding (PPB), rapid equilibrium dialysis, rat plasma; format: in vitro ADME; conditions: 5 μM test compound, dialysis 5 hrs at 37° C.
Description: The fraction unbound in plasma was determined using ThermoScientific™ Pierce™ Rapid Equilibrium Dialysis Technology (Single-Use plate with inserts, 8K MWCO). 5 μM test compound was spiked into human or rat plasma (300 μL) and dialysed against 146.5 mM phosphate buffer (500 μL) for 5 hrs at 37° C., shaking at 1200 rpm. Reference samples from the non-dialysed plasma were taken before the incubation to enable an assessment of recovery. Test compound concentrations were determined in plasma and buffer compartments by LCMS against a calibration curve. The fraction unbound in plasma was determined using standard methodology (Waters N J et al (2008) J Pharm Sci 97(10); 4586-95). Results are presented as percent plasma protein bound (% PPB).

[3] = In vitro permeability, Caco-2 model for oral absorption; format: in vitro ADME; conditions: human, apical to basolateral, 50 μM test compound, 37° C.
Method in brief: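 Caco-2 monolayers grown on collagen inserts for 3 days, with 50 μM compound added apically and incubated 1 hour at 37° C with shaking. Apical-to-basolateral transport measured by LCMS in both compartments. Monolayer integrity checked by TEER before and after, and by Lucifer Yellow flux.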

[4] = Intrinsic clearance in human liver microsomes; format: in vitro ADME; conditions: human liver microsomes 0.5 mg/mL, 5 μM test compound, 37° C.; read-out: Human liver microsome (Clint μL/min/mg protein)
Description: (§3) Rat or human liver microsomes (0.5 mg/mL; Corning) were incubated with 5 μM test compound at 37° C. on a shaking platform (150 rpm). Samples were taken at 0, 6, 12, 18, 24 and 60 min and test compound concentrations were determined by LCMS against a calibration curve.

[5] = Predicted plasma clearance (Clp), well-stirred model, rat; format: in vitro ADME; conditions: percentage of hepatic blood flow
Description: as §1

[6] = Intrinsic clearance in rat liver microsomes; format: in vitro ADME; conditions: rat liver microsomes 0.5 mg/mL, 5 μM test compound, 37° C.; read-out: rat liver microsome (Clint μL/min/mg protein)
Description: as §3

thrombin = thrombin (Homo sapiens (Human), UniProt P00734); assay: Determination of enzyme selectivity: thrombin; format: biochemical; conditions: substrate at Km concentration
Description: as §4

Human plasma kallikrein [7] = target: T1, Human plasma kallikrein (Homo sapiens (Human), UniProt P03952); assay: Determination of the IC50 for plasma kallikrein; format: biochemical; conditions: 25° C., substrate H-DPro-Phe-Arg-AFC; read-out: IC50 (human PKal)
T1 sequence (P03952 391-638): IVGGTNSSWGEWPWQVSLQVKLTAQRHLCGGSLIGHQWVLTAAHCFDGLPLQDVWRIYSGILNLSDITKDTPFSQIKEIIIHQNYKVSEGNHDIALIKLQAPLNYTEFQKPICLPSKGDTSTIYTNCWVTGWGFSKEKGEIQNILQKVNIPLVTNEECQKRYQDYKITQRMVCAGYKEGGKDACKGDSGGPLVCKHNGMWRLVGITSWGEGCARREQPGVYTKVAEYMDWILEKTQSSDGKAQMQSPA
T1 sequence (P03952 20-390): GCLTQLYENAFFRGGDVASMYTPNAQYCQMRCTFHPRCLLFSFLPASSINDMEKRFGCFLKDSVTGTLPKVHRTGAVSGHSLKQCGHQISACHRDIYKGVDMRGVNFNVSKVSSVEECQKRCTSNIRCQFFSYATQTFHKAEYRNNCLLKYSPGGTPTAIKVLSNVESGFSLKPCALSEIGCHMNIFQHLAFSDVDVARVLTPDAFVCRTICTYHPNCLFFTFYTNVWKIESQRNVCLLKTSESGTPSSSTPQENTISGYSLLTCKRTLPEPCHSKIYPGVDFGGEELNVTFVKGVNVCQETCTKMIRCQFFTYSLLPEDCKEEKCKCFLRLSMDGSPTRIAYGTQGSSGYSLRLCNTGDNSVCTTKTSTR
Description: as §2, with “plasma kallikrein (Protogen)” for “KLK1 (Callbiochem)”, “H-DPro-Phe-Arg-AFC” for “H-DVal-Leu-Arg-AFC”

Human FXIa = Human FXIa (Homo sapiens (Human), UniProt P03951); assay: Determination of the % inhibition / IC50 for FXIa; format: biochemical; conditions: for inhibition at 40 µM: 40 μM test compound, read-out: % Inhibition @ 40 μM (human FXIa); for IC50: 25° C., substrate Z-Gly-Pro-Arg-AFC
Chain of Human FXIa (P03951 388-625): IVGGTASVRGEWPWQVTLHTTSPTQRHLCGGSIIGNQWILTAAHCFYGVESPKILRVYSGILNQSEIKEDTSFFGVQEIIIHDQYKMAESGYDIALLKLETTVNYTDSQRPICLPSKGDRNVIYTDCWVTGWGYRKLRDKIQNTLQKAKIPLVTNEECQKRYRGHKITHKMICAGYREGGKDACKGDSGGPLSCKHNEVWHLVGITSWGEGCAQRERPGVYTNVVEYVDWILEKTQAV
Chain of Human FXIa (P03951 19-387): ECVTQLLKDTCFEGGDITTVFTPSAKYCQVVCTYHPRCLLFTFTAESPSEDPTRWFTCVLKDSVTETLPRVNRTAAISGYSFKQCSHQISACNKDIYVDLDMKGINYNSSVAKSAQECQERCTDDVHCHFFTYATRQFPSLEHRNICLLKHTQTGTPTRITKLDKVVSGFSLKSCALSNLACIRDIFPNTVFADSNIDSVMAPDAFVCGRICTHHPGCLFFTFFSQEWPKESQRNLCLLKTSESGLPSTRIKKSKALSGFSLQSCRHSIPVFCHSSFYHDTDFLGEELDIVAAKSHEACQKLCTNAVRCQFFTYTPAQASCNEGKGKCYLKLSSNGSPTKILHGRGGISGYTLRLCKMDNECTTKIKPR
Description: FXIa inhibitory activity in vitro was determined using standard published methods (see e.g. Johansen et al., Int. J. Tiss. Reac. 1986, 8, 185; Shori et al., Biochem. Pharmacol., 1992, 43, 1209; Sturzebecher et al., Biol. Chem. Hoppe-Seyler, 1992, 373, 1025). […]

[8] = Plasma protein binding (PPB), rapid equilibrium dialysis, human plasma; format: in vitro ADME; conditions: 5 μM test compound, dialysis 5 hrs at 37° C.
Description: The fraction unbound in plasma was determined using ThermoScientific™ Pierce™ Rapid Equilibrium Dialysis Technology (Single-Use plate with inserts, 8K MWCO). […] Reference samples from the non-dialysed plasma were taken before the incubation to enable an assessment of recovery. Test compound concentrations were determined in plasma and buffer compartments by LCMS against a calibration curve. […] Results are presented as percent plasma protein bound (% PPB).

[9] = Solubility in water and 0.1N HCl (aq); format: physicochemical; conditions: thermodynamic from solid, incubated at 1 mg/mL, 37° C.
Description: Solubility was determined in water and 0.1N HCl (aq). Test compounds were incubated at 1 mg/mL for 24 hrs at 37° C. on a shaking platform (500 rpm). Samples were taken at 1, 4 and 24 hrs and centrifuged at 15,000 g for 10 min. Test compound concentration in the supernatant was determined by LCMS against a standard curve.

Human plasma kallikrein [10] = target: T1, Human plasma kallikrein; assay: Determination of the Ki for plasma kallikrein (mixed-model inhibition); format: biochemical; conditions: for Ki: human plasma kallikrein, mixed-model inhibition equation; for Alpha: parameter of the mixed-model equation indicating mechanism of inhibition
Description: Plasma kallikrein inhibitory activity in vitro was determined using standard published methods (e.g. Johansen et al., Int. J. Tiss. Reac. 1986, 8, 185; Shori et al., Biochem. Pharmacol., 1992, 43, 1209; Sturzebecher et al., Biol. Chem. Hoppe-Seyler, 1992, 373, 1025). […]. Residual enzyme activity (initial rate of reaction) was determined by measuring the change in fluorescence at 410 nm. The Ki value for the test compound was determined using the mixed-model inhibition equation (based on Equation 3.2 in: RA Copeland, Evaluation of Enzyme Inhibitors in Drug Discovery, Wiley 2005) in GraphPad Prism. The mixed model equation includes competitive, uncompetitive and noncompetitive inhibition as special cases and the parameter of Alpha to indicate mechanism of inhibition.

[11] = simulated gastric fluid, 0.1N HCl (aq), read-out: Solubility 0.1N HCl (aq)
[12] = water, read-out: Solubility Water

Predicted in vivo human Clp (% LBF) [1] [% LBF] | IC50 (trypsin) [µM] | IC50 (plasmin) [µM] | IC50 (Human KLK1) [µM] | IC50 (Human Factor XIIa) [µM] | fraction unbound at 5 h, 5 μM [2] | Papp at 1 h, 50 μM [3] [×10⁻⁶ cm/s] | microsomal CLint at 5 μM [4] [µL/min/mg] | Predicted in vivo rat Clp (% LBF) [5] [% LBF] | microsomal CLint at 5 μM [6] [µL/min/mg] | IC50 (thrombin) [µM] | IC50 (Human plasma kallikrein [7]) [µM] | inhibition at 40 µM (Human FXIa) [%] | IC50 (Human FXIa) [µM] | fraction unbound at 5 h, 5 μM [8] | solubility [9, 11] [µg/mL] | solubility [9, 12] [µg/mL] | Ki (Human plasma kallikrein [10]) [µM] | Alpha (Human plasma kallikrein [10]) | inhibition at 12.7 µM (Human FXIa; 12.7 μM test compound) [%] | SMILES
16 | > 40 | > 40 | > 40 | > 40 | 0.05 | 20 | 48 | 11 | 73 | > 40 | 0.283 | 7 | > 40 | 0.08 | – | – | – | – | – | COCc1nn(Cc2ccc(Cn3ccccc3=O)cc2)cc1C(=O)NCc1cc(OC)ccc1C#N [Example 37, N-[(2-cyano-5-methoxyphenyl)methyl]-3-(methoxymethyl)-1-({4-[(2-oxopyridin-1-yl)methyl]phenyl}methyl)pyrazole-4-carboxamide]
35 | > 40 | > 40 | > 40 | > 40 | 0.04 | 13 | 104 | 10 | 77 | > 40 | 0.0017 | 5 | > 40 | 0.1 | – | – | – | – | – | COCc1nn(Cc2ccc(Cn3cc(F)ccc3=O)cc2)cc1C(=O)NCc1c(C#N)ccc(OC)c1F [Example 53, N-[(6-cyano-2-fluoro-3-methoxyphenyl)methyl]-1-({4-[(5-fluoro-2-oxopyridin-1-yl)methyl]phenyl}methyl)-3-(methoxymethyl)pyrazole-4-carboxamide]
17 | > 40 | > 40 | > 40 | > 40 | 0.13 | 5 | 22 | 14 | 47 | > 40 | 0.0004 | 20 | > 40 | 0.24 | – | – | 0.0001 | 2.2 | – | COCc1nn(Cc2ccc(Cn3ccccc3=O)cc2)cc1C(=O)NCc1cc(OC)ccc1-n1cnnn1 [Example 40, N-{[5-methoxy-2-(1,2,3,4-tetrazol-1-yl)phenyl]methyl}-3-(methoxymethyl)-1-({4-[(2-oxopyridin-1-yl)methyl]phenyl}methyl)pyrazole-4-carboxamide]

The remaining lines, values behind:

SMILES | Predicted in vivo human Clp (% LBF) [1] [% LBF] | IC50 (trypsin) [µM] | IC50 (plasmin) [µM] | IC50 (Human KLK1) [µM] | IC50 (Human Factor XIIa) [µM] | fraction unbound at 5 h, 5 μM [2] | Papp at 1 h, 50 μM [3] [×10⁻⁶ cm/s] | microsomal CLint at 5 μM [4] [µL/min/mg] | Predicted in vivo rat Clp (% LBF) [5] [% LBF] | microsomal CLint at 5 μM [6] [µL/min/mg] | IC50 (thrombin) [µM] | IC50 (Human plasma kallikrein [7]) [µM] | inhibition at 40 µM (Human FXIa) [%] | IC50 (Human FXIa) [µM] | fraction unbound at 5 h, 5 μM [8] | solubility [9, 11] [µg/mL] | solubility [9, 12] [µg/mL] | Ki (Human plasma kallikrein [10]) [µM] | Alpha (Human plasma kallikrein [10]) | inhibition at 12.7 µM (Human FXIa; 12.7 μM test compound) [%]
COc1ccc(C#N)c(CNC(=O)c2cn(Cc3ccc(Cn4ccccc4=O)cc3)nc2N)c1F [Example 43, 3-amino-N-[(6-cyano-2-fluoro-3-methoxyphenyl)methyl]-1-({4-[(2-oxopyridin-1-yl)methyl]phenyl}methyl)pyrazole-4-carboxamide] | 8 | > 40 | > 40 | > 4 | > 4 | 0.08 | 2 | 10 | 2 | 5 | > 40 | 0.0006 | 27 | > 40 | 0.12 | – | – | – | – | –
COc1ccc(F)c(CNC(=O)c2cn(Cc3ccc(Cn4ccccc4=O)cc3)nc2N)c1F [Example 35, 3-amino-N-[(2,6-difluoro-3-methoxyphenyl)methyl]-1-({4-[(2-oxopyridin-1-yl)methyl]phenyl}methyl)pyrazole-4-carboxamide] | 7 | > 40 | > 40 | > 40 | > 40 | 0.01 | 7 | 24 | 1 | 15 | > 40 | 0.0017 | 5 | > 40 | 0.04 | 40 (≈ 83.4 µM) | 20 (≈ 41.7 µM) | – | – | –
COCc1nn(Cc2ccc(Cn3ccccc3=O)cc2)cc1C(=O)NCc1cc(Cl)ccc1-n1cnnn1 [Example 72, N-{[5-chloro-2-(1,2,3,4-tetrazol-1-yl)phenyl]methyl}-3-(methoxymethyl)-1-({4-[(2-oxopyridin-1-yl)methyl]phenyl}methyl)pyrazole-4-carboxamide] | 14 | > 40 | > 40 | > 4 | > 4 | 0.06 | 6 | 32 | 12 | 72 | 39.2 | 0.0007 | – | 10.6 | 0.1 | 46 (≈ 84.4 µM) | 46 (≈ 84.4 µM) | 0.00016 | 6.0 | 53
